Measured values reported in patent US6342492B1, “Anti-viral triaza compounds and compositions” (The Research Foundation of State University of New York, priority 1995, dated 2002).
Read-outs that look alike come from different tables or passages of the source.

Columns and labels:
[1] = Inhibition of cell proliferation (cytotoxicity) in herpesvirus screening; type: cell-based, human; settings: human, human foreskin fibroblast cells
Varicella Zoster Virus = assay: Plaque reduction assay for VZV (Ellen strain); type: cell-based; settings: Human alphaherpesvirus 3
Description: (§1) Additional antiviral testing was carried out to test the efficacy of compounds of the invention against human cytomegalovirus (HCMV) and another herpesvirus, Variecella Zoster Virus(VZV). The compounds tested were compound (1), the HCl salt of compound (1), Compounds 211, 43, 213 and 214.

Human Cytomegalovirus = assay: Semi-automated CPE-inhibition assay for HCMV in human foreskin fibroblast cells; type: cell-based; settings: Human betaherpesvirus 5
Description: as §1

Epstein Barr virus (EBV) = assay: Antiviral screening against Epstein Barr virus; type: cell-based; settings: human gammaherpesvirus 4; read-out: anti-EBV activity EC50

SMILES: C=C1CN(S(=O)(=O)c2ccc(C)cc2)CCCN(C(=O)OCC)CCCN(S(=O)(=O)c2ccc(C)cc2)C1 [Compound 213, 9-(Ethyloxycarbonyl)-3-methylene-1,5-ditosyl-1,5,9-triazacyclododecane]
- CC50 ([1]; inhibit cell proliferation by 50%, HCMV CPE-inhibition screen, read-out: Human Cytomegalovirus CC50): 167 µM
- CC50 ([1]; inhibit cell proliferation by 50%, VZV screen, read-out: Varicella Zoster Virus CC50): > 180 µM
- CC50 ([1]; with anti-EBV screen, read-out: CC50): > 180 µM
- EC50 (Varicella Zoster Virus): 170 µM
- EC50 (Human Cytomegalovirus): 3 µM
- EC50 (Epstein Barr virus (EBV)): 6.7 µM
